Legend:
Format in all cases: cell-based, Chinese hamster
[1] = tested on: CHO cell line with CTLA4Ig secretion; assay: Shake flask culture of CHO cell line secreting CTLA4Ig: VCD and viability (Example 4)
Experimental: The CHO cell line used in this study was originally subcloned from DG44 parental cells and cultured in a proprietary chemical-defined growth medium.
The experiments were carried out in 250-mL shake flasks (VWR international) with starting volumes of 100 mL and initial cell densities of 6×10^5 cells/mL. The cultures were placed on a shaker platform (VWR international) at 150 rpm and maintained at 37° C. and 6% CO2 for ten days. The cultures were sampled daily and the pH was adjusted as needed using 1M sodium carbonate and fed with glucose and glutamine every two days in order to maintain them at adequate levels. […] Cell density and viability were measured offline using a Cedex automated cell counter (Innovatis AG, Bielefeld, Germany). Culture pH and concentrations for glucose and glutamine were measured off-line using a Bioprofile Analyzer 400 (Nova Biomedical Corporation, Waltham, Mass.). Supernatants from culture harvests were collected for analysis of sialic acid content and HMW level.
Cell viability for the untreated cultures decreased rapidly after Day 6 (FIG. 16B) and percent viability on day 10 was only 64.5%.

[2] = tested on: GILZ (glucocorticoid-induced leucine zipper); assay: qRT-PCR of GILZ gene expression in CHO cells; details: 1 μM DEX added day 2
Experimental: Purified RNA was treated with RNasefree DNaseI (Qiagen) and then used as a template to synthesize the first-strand cDNA using RT^2 First Strand Kit (SA Biosciences, Frederick, Md.). Expression of GILZ was quantitatively determined using GILZ specific TaqMan MGB probe (6-FAM-[…]) and primers (Forward: 5-[…]-3 and Reverse: 5-[…]-3). 20 ng of cDNA was amplified using 900 nM primers and 250 nM probe in 1× TaqMan Fast Universal PCR Master Mix (Applied Biosystems, Carlsbad, Calif.). Reactions were run in triplicate on the Applied Biosystems 7500 Fast Real-Time PCR System using the universal cycling parameters (20 s 95° C., 40 cycles of 3 s 95° C., 30 s 60° C.). Parallel reactions were set up on the same plate analyzing β-Actin in each sample as an endogenous control. The threshold cycle of each gene was normalized against the threshold cycle of “housekeeping gene” […]. Normalized changes in gene expression with respect to the control were calculated using delta-delta threshold cycle method (Livak and Schmittgen, 2001).
GILZ was analyzed using qRT-PCR to validate the gene expression profiles obtained by microarray analysis. […] Parallel reactions were set up on the same plate analyzing β-Actin in each sample as an endogenous control.

CHO cells [3] = assay: Fed-batch 10-L bioreactor CHO culture: VCD, viability, titer
Experimental: Bioreactor experiments were performed in 10-L bioreactors (Sartorius Stedim Biotech, France) with starting working volumes of 5 L. Agitation, pH and dissolved oxygen were controlled at 150 rpm, 7.05, and 50% air saturation, respectively. Temperature was initially controlled at 37° C. and was shifted to lower temperature during the culture to extend the culture viability. The bioreactors were operated in a batch fed mode and were fed daily starting on day 3 with the proprietary feed medium to maintain adequate concentrations for glucose and other nutrients. Samples were taken during the cell culture process and analyzed for cell density, cell viability, substrates and metabolites.
The eluted protein was quantified using a 10-level standard curve.
Different from shake flask runs, bioreactor runs were extended to 14 days, the culture temperature was shifted to a lower temperature during the late exponential phase of the culture, and a proprietary feeding medium was used instead of feeding only glucose and glutamine.

CHO cells [4] = assay: Fed-batch 7-L, 500-L and 5000-L bioreactors with dexamethasone in the feed medium (Example 5)
Experimental: The CHO cell line used in this study was subcloned from DG44 parental cells and cultured in a proprietary growth medium.
Bioreactor experiments were performed in 7-L, 500-L and 5000-L bioreactors with starting working volumes around 3 L, 300 L and 3000 L, respectively. All the bioreactor runs started at 37° C. and shifted to lower temperature when cells entered production phase in order to extend the cell culture period. pH, and dissolved oxygen were maintained at 7.05, and 50% air saturation. Agitation rates for 7-L, 500-L and 5000-L scales are 180, 75 and 60 rpm respectively. All the bioreactor experiments were conducted in a fed batch mode with daily feeding of a protein-free medium in order to maintain the glucose and other nutrients at certain levels. […] Samples were taken during the cell culture process and analyzed for cell density, cell viability, substrates and metabolites.
The titer, sialic acid and HMW content assay were performed as described in the previous examples.

CHO cells [5] = assay: Shake flask CHO culture: cell viability profile (Example 1); details: 1 μM DEX from day 2
Experimental: The experiments were carried out in 250-mL shake flasks (VWR international) with starting volumes of 100 mL and initial cell densities of 6×10^5 cells/mL. The cultures were placed on a shaker platform (VWR international) at 150 rpm and maintained at 37° C. and 6% CO2 for ten days. The cultures were sampled daily and the pH was adjusted as needed using 1M sodium carbonate and fed with glucose and glutamine every two days in order to maintain them at adequate levels. Cell density and viability were measured offline using a Cedex automated cell counter (Innovatis AG, Bielefeld, Germany). Culture pH and concentrations for glucose and glutamine were measured off-line using a Bioprofile Analyzer 400 (Nova Biomedical Corporation, Waltham, Mass.).

[6] = day 14, 1 μM DEX added on day 2
[7] = day 14, 1 μM DEX added on day 7

SMILES: C[C@@H]1C[C@H]2[C@@H]3CCC4=CC(=O)C=C[C@]4(C)[C@@]3(F)[C@@H](O)C[C@]2(C)[C@@]1(O)C(=O)CO [DEX, dexamethasone]
- final cell viability (day 10) ([1]; 0.001 μM DEX added day 2): 75.5%
- final cell viability (day 10) ([1]; 10 μM DEX added day 2): 82.3%
- normalized expression profile change of GILZ (qRT-PCR) ([2]; day 5 samples): 7.66±1.08
- normalized expression profile change of GILZ (qRT-PCR) ([2]; day 8 samples): 10.48±2.16
- maximum cell density (CHO cells [3]; 1 μM DEX added on either day 2 or day 7, day 8): approximately 8.3 ×10^6 cell/mL
- Cell viability (CHO cells [3]; day 6, all conditions): 94%
- Normalized protein titer (CHO cells [3]; day 7, prior to the maximum VCD): approximately 5.5
- increase of day 14 normalized titer vs without DEX (CHO cells [3]; day 14): 20%
- Final VCD (CHO cells [3]; [6]): 4.1 ×10^6 cell/mL
- percent viability (CHO cells [3]; [6]): 55%
- Final VCD (CHO cells [3]; [7]): 3.5 ×10^6 cell/mL
- percent viability (CHO cells [3]; [7]): 39%
- harvest normalized titer (CHO cells [3]; day 14, both bioreactors with DEX): 12.5
- Day 14 average viability (CHO cells [4]; 7-L scale): 88%
- Day 14 titer (normalized value) (CHO cells [4]; 7-L scale): 13.2
- Peak sialic acid level (normalized value) (CHO cells [4]; 7-L scale): 16.0
- Day 14 average viability (CHO cells [4]; 500-L scale): 84%
- Day 14 titer (normalized value) (CHO cells [4]; 500-L scale): 11.6
- Peak sialic acid level (normalized value) (CHO cells [4]; 500-L scale): 18.0
- Day 14 average viability (CHO cells [4]; 5000-L scale): 91%
- Day 14 titer (normalized value) (CHO cells [4]; 5000-L scale): 13.6
- Peak sialic acid level (normalized value) (CHO cells [4]; 5000-L scale): 19.0
- drop of sialic acid by the end of the runs (CHO cells [4]; all scales): approximately 2.6 units
- Cell viability (CHO cells [5]; day 4): 98.0±0.1%
- Cell viability (CHO cells [5]; day 10): 85.0±2.7%

Reference: patent US10030064B2, “Mammalian cell culture processes for protein production” (priority 2009, dated 2018)
